Results taken from ChEMBL document CHEMBL1201862, “PubChem BioAssay data set” (2004).
Active and inactive are the calls of the source.

Assays:
[1] = target: T1, Low molecular weight phosphotyrosine protein phosphatase (Homo sapiens, UniProt P24666); assay type: functional; conditions: read-out: IC50_Mean
T1 sequence (P24666 whole entry): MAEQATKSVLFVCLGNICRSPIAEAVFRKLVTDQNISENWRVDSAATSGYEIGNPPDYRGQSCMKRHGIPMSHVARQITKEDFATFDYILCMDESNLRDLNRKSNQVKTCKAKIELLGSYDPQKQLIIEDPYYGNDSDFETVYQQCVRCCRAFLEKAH

[2] = target: T1, Low molecular weight phosphotyrosine protein phosphatase; assay type: functional; conditions: read-out: IC50_Mean; remark: listed apart in the source
[3] = target: T2, Heat shock factor protein 1 (Mus musculus, UniProt P38532); assay: inhibition of MG132-induced HSE-luciferase signal, confirmation, cell-based, NIH3T3, luminescence, dose retest (AID 2382); assay type: functional;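 note: NIH3T3 fibroblasts with HSF1-driven luciferase reporter stressed by proteasome inhibitor MG132; luminescence from HSF1-driven luciferase expression after 8 hours of MG132 stress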
T2 sequence (P38532 whole entry): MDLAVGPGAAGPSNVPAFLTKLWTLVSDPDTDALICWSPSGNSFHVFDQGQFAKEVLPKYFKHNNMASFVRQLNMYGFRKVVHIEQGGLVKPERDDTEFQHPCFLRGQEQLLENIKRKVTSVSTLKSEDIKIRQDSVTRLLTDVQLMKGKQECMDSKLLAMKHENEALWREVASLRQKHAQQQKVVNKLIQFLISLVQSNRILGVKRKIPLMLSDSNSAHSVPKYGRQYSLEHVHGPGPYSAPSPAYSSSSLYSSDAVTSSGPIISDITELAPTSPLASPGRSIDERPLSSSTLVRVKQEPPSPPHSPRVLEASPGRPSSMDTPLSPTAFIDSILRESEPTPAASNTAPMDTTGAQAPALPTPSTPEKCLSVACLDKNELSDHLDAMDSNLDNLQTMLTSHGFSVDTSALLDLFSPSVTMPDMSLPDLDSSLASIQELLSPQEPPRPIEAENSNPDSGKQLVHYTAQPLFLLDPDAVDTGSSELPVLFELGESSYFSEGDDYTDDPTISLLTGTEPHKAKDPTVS

NS3 = NS3 (Hepatitis C virus, UniProt A3EZJ3); assay: PubChem AID 2173; design: species or system Hepacivirus hominis
HEK293 = assay: Fluorescence-based counterscreen for potentiators or agonists of NPY-Y2: cell-based high-throughput dose response assay to identify inhibitors of cyclic nucleotide gated ion channel (CNGC) activity. In this assay, the parental HEK293 cell line transfected with a cyclic-nucleotide gated ion channel (CNGC)-based cAMP sensor is used to measure inhibition of isoproterenol-induced CNGC activity by test compound.; assay type: functional; conditions: Homo sapiens;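 note: stimulus is 1 µM isoproterenol at EC100 plus PDE inhibitor Ro 20-1724 at 25 µM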
[4] = target: Neuropeptide Y receptor type 1 (Homo sapiens, UniProt P25929); assay: Fluorescence-based counterscreen for agonists of NPY-Y2: cell-based high-throughput dose response assay for agonists of NPY-Y1.; assay type: functional
[5] = target: Neuropeptide Y receptor type 2 (Homo sapiens, UniProt P49146); assay: Fluorescence-based cell-based high-throughput dose response assay for agonists of NPY-Y2. [Related pubchem assays: 1703 (Screening assay (CNGC inhibitors).), 1359 (Screening assay (NPY-Y2 potentiators or agonists).), 1304 (Screening assay (NPY-Y1 potentiators or agonists).), 1710 (Screening assay (NPY-Y2 agonists).), 1791 (Summary AID.)]; assay type: functional
Bcl-2-related protein A1 [6] = target: T3, Bcl-2-related protein A1 (Mus musculus, UniProt Q07440); assay: Bfl-1 binding inhibitors, SAR follow-up, biochemical, fluorescence polarization (AID 1070)
T3 sequence (Q07440 whole entry): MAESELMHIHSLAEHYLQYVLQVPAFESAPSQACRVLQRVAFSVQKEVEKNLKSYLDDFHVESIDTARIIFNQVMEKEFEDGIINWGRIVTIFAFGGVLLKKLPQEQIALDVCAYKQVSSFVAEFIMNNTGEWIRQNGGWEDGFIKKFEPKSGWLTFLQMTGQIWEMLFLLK

Bcl-2-related protein A1 [7] = target: T3, Bcl-2-related protein A1; assay: Bfl-1 inhibitors blocking BH3 peptide binding, confirmation, biochemical, TR-FRET, mouse Bfl-1 (AID 621);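 note: TR-FRET binding of GST-Bfl-1 to FITC-labelled Bid peptide via terbium antibody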
[8] = target: Glyceraldehyde-3-phosphate dehydrogenase (Homo sapiens, UniProt P04406)
[9] = inhibitors of SNCA 5'UTR-driven translation, confirmation, luminescence, H4 neuroglioblastoma cells, dose confirmation (AID 2454); assay type: functional, cell-based;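 note: H4 neuroglioblastoma cells carrying an alpha-synuclein 5'UTR luciferase reporter; potency for inhibition of the luciferase signal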
Streptococcus = assay: Group A Streptococcus viability loss, dose response, counter-screen for streptokinase expression inhibitor project, luminescence, BacTiterGlo (AID 1915); assay type: functional, organism-based;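 note: potency for reduction of bacterial viability or growth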
cells = assay type: functional, cell-based
[10] = Luminescence Cell-Based Dose Response HTS to Identify Inhibitors of 5'UTR Stem-Loop Driven Prion Protein mRNA Translation in H4 Neuroglioblastoma Cells. [Related pubchem assays: 1827 (Project Summary), 1813 (Primary HTS)]; assay type: functional
[11] = inhibitors of firefly luciferase expression or activity, dose response, H4 neuroglioma cells, luminescence (AID 1990); assay type: functional, cell-based
[12] = system: Streptococcus sp. 'group A'; assay: growth inhibition of control SK(-) GAS strain, dose response, counter-screen for streptokinase expression inhibitor project, luminescence, kanamycin, BacTiterGlo, confirmation (AID 1900); assay type: functional, organism-based
[13] = luciferase reporter signal reduction – luminescence, H4-C neuroglioblastoma cells, dose response (AID 2458); assay type: functional, cell-based;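 note: H4 neuroglioblastoma cells stably carrying a luciferase reporter gene fusion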
[14] = inhibitors of SNCA 5'UTR-driven reporter translation, confirmation, H4 neuroglioma cells, luminescence (AID 1988); assay type: functional, cell-based
[15] = target: Dual specificity tyrosine-phosphorylation-regulated kinase 1A (Rattus norvegicus, UniProt Q63470); assay type: biochemical, Homo sapiens
[16] = inhibitors of Bluetongue virus cytopathic effect, confirmation, arbovirus, BSR cells (AID 1250); assay type: functional;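 note: protection from viral cytopathic effect measured as cell viability by ATP luminescence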
[17] = target: Lytic switch protein BZLF1 (Epstein-Barr virus (strain B95-8) (HHV-4) (Human herpesvirus 4), UniProt P03206); assay: EBV ZTA inhibitors, dose response, counter-screen for EBNA-1 inhibitor project, biochemical, fluorescence polarization, Epstein-Barr virus, 1536-well (AID 2377); design: species or system human gammaherpesvirus 4;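 note: fluorescence polarization of Cy5-labelled ZRE DNA probe bound by purified Zta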
[18] = target: Epstein-Barr nuclear antigen 1 (Epstein-Barr virus (strain B95-8) (HHV-4) (Human herpesvirus 4), UniProt P03211); assay: EBNA-1 inhibitors, dose response, biochemical, fluorescence polarization, 1536-well (AID 2381); design: species or system human gammaherpesvirus 4;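 note: fluorescence polarization of a Cy5 DNA probe bound by EBNA-1 protein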
Epstein-Barr nuclear antigen 1, sequence (P03211 whole entry): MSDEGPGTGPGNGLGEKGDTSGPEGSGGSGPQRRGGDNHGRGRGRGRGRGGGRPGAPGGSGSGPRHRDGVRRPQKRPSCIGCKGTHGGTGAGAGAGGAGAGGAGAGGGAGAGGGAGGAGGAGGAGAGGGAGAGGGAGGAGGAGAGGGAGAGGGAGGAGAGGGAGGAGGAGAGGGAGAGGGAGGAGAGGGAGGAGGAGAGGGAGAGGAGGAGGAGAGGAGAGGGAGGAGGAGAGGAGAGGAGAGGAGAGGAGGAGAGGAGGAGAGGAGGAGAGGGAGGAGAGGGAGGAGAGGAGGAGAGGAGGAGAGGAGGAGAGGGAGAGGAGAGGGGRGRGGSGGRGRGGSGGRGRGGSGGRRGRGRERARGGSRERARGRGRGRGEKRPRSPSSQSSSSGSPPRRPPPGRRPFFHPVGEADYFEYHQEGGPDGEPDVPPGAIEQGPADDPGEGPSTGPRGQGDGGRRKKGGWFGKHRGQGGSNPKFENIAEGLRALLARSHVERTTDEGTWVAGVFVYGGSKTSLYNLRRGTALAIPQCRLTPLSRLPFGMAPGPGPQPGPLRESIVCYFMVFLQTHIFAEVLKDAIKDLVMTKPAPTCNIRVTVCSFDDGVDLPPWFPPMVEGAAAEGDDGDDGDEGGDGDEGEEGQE

NS3, sequence (A3EZJ3 whole entry): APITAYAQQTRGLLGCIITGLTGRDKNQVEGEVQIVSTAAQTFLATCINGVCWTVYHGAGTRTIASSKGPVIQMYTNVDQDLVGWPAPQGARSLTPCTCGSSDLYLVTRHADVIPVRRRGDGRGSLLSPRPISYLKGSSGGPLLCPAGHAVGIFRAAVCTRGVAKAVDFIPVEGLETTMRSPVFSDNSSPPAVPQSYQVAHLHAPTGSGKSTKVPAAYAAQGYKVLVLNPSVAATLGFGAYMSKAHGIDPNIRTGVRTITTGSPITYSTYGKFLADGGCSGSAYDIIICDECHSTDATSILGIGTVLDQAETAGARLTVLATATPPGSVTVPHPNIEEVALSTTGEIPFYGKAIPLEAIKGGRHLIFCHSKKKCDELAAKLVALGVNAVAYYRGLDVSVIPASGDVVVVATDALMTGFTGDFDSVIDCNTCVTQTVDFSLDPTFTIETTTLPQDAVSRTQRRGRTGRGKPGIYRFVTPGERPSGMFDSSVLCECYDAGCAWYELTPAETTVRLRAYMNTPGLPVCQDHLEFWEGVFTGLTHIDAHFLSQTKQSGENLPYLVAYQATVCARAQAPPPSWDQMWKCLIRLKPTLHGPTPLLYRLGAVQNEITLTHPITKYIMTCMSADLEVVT
Neuropeptide Y receptor type 2, sequence (P49146 whole entry): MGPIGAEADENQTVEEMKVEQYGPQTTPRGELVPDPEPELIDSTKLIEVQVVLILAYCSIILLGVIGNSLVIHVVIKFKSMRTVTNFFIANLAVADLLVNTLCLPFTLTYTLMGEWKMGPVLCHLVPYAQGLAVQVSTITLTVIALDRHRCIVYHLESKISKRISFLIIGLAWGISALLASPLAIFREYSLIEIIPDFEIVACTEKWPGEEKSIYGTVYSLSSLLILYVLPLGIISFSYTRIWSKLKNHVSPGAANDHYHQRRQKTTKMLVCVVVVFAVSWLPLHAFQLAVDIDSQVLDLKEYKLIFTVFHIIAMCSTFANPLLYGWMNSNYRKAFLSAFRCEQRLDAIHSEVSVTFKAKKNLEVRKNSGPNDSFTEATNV
Lytic switch protein BZLF1, sequence (P03206 whole entry): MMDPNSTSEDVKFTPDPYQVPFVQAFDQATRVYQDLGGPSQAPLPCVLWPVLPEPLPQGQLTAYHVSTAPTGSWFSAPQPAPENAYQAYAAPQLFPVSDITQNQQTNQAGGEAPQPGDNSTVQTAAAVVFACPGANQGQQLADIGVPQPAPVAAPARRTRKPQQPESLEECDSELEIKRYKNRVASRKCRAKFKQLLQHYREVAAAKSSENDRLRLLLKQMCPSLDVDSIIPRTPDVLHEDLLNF
Neuropeptide Y receptor type 1, sequence (P25929 whole entry): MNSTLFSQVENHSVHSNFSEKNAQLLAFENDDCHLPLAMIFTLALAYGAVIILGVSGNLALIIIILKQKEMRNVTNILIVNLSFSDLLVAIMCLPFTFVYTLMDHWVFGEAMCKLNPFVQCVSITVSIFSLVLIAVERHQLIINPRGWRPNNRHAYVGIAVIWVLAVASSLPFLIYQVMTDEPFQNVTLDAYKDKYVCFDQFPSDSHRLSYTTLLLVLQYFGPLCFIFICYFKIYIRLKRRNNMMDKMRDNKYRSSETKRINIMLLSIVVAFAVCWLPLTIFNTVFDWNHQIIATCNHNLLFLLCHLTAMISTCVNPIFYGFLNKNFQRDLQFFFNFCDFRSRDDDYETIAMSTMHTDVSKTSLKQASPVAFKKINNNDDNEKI
Glyceraldehyde-3-phosphate dehydrogenase, sequence (P04406 whole entry): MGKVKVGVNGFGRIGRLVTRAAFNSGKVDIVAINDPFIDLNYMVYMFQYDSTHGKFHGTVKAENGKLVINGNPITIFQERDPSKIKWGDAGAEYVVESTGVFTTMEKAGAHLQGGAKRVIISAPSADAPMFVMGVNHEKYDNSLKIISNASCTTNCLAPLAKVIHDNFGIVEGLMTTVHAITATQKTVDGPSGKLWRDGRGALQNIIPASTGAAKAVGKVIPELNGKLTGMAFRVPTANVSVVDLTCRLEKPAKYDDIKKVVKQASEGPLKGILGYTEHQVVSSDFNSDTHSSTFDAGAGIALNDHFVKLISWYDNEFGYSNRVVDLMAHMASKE

Compound: CCCCOc1ccc(C2C(C(=O)c3ccc(C)o3)=C(O)C(=O)N2Cc2ccco2)cc1 (stereo not drawn)
- IC50 [1]: 54.5 µM (inactive)
- IC50 [2]: > 80 µM (inactive)
- EC50 [3]: 46.6 µM (active)
- IC50 (NS3): 3.26 µM (active)

Compound: CCSc1nnc(NC(=O)CCNS(=O)(=O)c2cc(Br)cnc2N)s1
- EC50 (HEK293): 9.32 µM (active)
- EC50 [4]: 11.7 µM (not active)
- EC50 [5]: 13.7 µM (not active)

Compound: O=C1C(Cl)=C(Cl)C(=O)N1c1cccc(Cl)c1
- IC50 (Bcl-2-related protein A1 [6]): 3.41 µM (active)
- IC50 (Bcl-2-related protein A1 [7]): 5.17 µM (active)
- IC50 [8]: > 100 µM (not active)

Compound: CCc1ccc2c(c1)C1(NN=C(c3cccc4ccccc34)S1)C(=O)N2 (stereo not drawn)
- EC50 [9]: 2.85 µM (inconclusive)
- EC50 (Streptococcus): 0.706 µM (active)
- EC50 (cells): 0.875 µM (active)
- EC50 [10]: < 0.1 µM (active)
- EC50 [11]: 38.5 µM (active)
- EC50 [12]: < 0.06 µM (active)
- EC50 [13]: 1.25 µM (active)
- EC50 [14]: < 0.1 µM (active)

Compound: N#Cc1c(C(F)(F)F)cc(-c2cccc(Cl)c2)nc1O
- AC50 [15]: 7.04 µM (active)
- IC50 [16]: 42.9 µM (active)

Compound: COc1cccc(N2CCN(S(=O)(=O)c3ccc(-c4cnc(C5CC5)o4)cc3)CC2)c1
- IC50 [17]: > 111 µM (not active)
- IC50 [18]: 6.91 µM (active)

Compound: CC(Oc1ccccc1)C(=O)Nc1oc(-c2ccco2)c(-c2ccco2)c1C#N (stereo not drawn)
- IC50 (NS3): 16.7 µM (not active)
